From patent US20160045487A1, “COMPOSITIONS AND METHODS FOR TREATING NEUROPATHY” (CHILDEREN'S MEDICAL CENTER CORPORATION, priority 2013, published 2016)

Experiments:
GFAP-DN-erbB4 mice = test: Electron microscopy of sciatic nerve Remak bundles, GFAP-DN-erbB4 mice; type: in vivo, mouse
Description: As a first test, a cream containing XIB4035 (1.5 mM) was applied directly to the hind paws of GFAP-DN-erbB4 and wild type mice twice daily for a period of 4 weeks starting prior to symptom onset (P21). Mice of both genotypes were also treated with the base cream containing no drug for control. Mice were tested for responses to a noxious thermal stimulus prior to the initiation of treatment and every 7 days for the duration of the experiment.
The cream containing XIB4035 (1.5 mM, ZereneX Molecular Ltd., Manchester, UK) consisted of N-methyl-pyrrolidone (6.25%), isopropyl myristate (6.25%) and petroleum jelly (87.5%). Control cream had the same ingredients without XIB4035. Cream was applied twice daily to the hind paws of mice starting at P21 for a period of 4 weeks for prophylactic treatment of GFAP-DN-erbB4. Diabetic mice were treated twice daily for 8 weeks after streptozotocin (STZ) injection prior to onset of hyperglycemia and for another 8 weeks during neuropathy testing. Cream treatment in therapeutic studies using GFAP-DN-erbB4 mice was performed twice daily beginning after onset of SFN at P28 and either continued for 5 weeks (chronic treatment) or 1 week (acute treatment).
Tissue was prepared as in (Lacomis, supra). Briefly, mice were perfused intracardially with 2% paraformaldehyde, 2.5% gluteraldehyde and 0.03% picric acid in 0.1 M cacodylate buffer (pH 7.2). Tissue was post-fixed overnight at 4° C. and embedded in Epon. Ultrathin sections were cut, collected on cellodin-coated grids and stained using uranyl acetate and lead citrate. Photographs were taken using the Tecnai G2 Spirit BioTWIN transmission electron microscope.

RET = biological target: T1, RET (Homo sapiens, UniProt P07949+P56159); test: RET phosphorylation phospho-tyrosine Western blot in SH-SY5Y cells; type: cell-based
T1 construct: endogenous in cells; host or cells: SH-SY5Y (SH-SY5Y-THpGL3) human neuroblastoma cells
Description: One goal of these studies was to determine if XIB4035 could be used for treating SFN in humans. Using the Neuro2A (N2A) murine neuroblastoma cell line, Tokugawa et al. (supra) reported XIB4035 as a competitive agonist for the GDNF receptor GFRα1 that activates the RET receptor. Since populations of DRG sensory neurons express different GFRα receptors, thus making them preferentially responsive to the particular ligands, it was important to determine if XIB4035 was specific to GFRα1 or could act on other family members. Since PSPN has no effect on peripheral sensory neurons, the GFRα1, GFRα2, and GFRα3 receptors were the focus of these studies. The SH-SY5Y, a human neuroblastoma cell line expressing mRNA for GFRα1, GFRα2, and GFRα3, was used to perform two cell-based assays; immunoblots measuring RET phosphorylation and a luciferase reporter assay using the tyrosine hydroxylase (TH) promoter. For the latter two paradigms were used, either overnight treatment immediately followed by luciferase activity measurements or 10 minute treatments followed by washout and overnight incubation prior to measurements. GDNF and ARTN induced robust TH-luciferase activity in a dose dependent manner (FIG. 3E). Because the responses to GDNF and ARTN were more robust, these two factors were chosen for further analysis.
Since the original report argued that XIB4035 displaces GDNF binding to GFRα1 expressing cells (FIG. 2 in Tokugawa et al., Neurochem Int 42, 81-86 (2003).), potentially ARTN, on TH-luciferase activity and Ret phosphorylation. […] In this experiment, cells were treated with GDNF or ARTN with or without XIB4035 for 10 minutes and cell lysates were either collected immediately or treatment was washed out and replaced with growth media for 30, 60, or 120 minutes. […] Therefore, we tested cells expressing only one GFRα using either N2A cells (which express RET) transfected with GFRα1 or GFRα3 expression constructs, or B(E)2-C cells, which express only GFRα2 together with RET. […]

[1] = test system: diabetic mice (STZ model); test: Nerve conduction velocity in sciatic nerves of STZ diabetic mice; type: in vivo, mouse; conditions: cream from hyperglycemia for 16 weeks
Description: To examine NCV, normo-glycemic or diabetic mice (STZ model, as described elsewhere herein) were treated with either vehicle cream or with cream containing XIB4035 from the moment they became hyperglycemic, for 16 weeks. At the end of this period, nerve conduction velocity (NCV) was measured in sciatic nerves.
(§1) Adult female C57 Bl/6J mice were made diabetic (blood glucose >15 mmol/L) by injection of STZ (90 mg/kg i.p.) on two consecutive days, with confirmation of hyperglycemia made 7 days after STZ delivery. Paw thermal response latency of the right paw was measured every two weeks from weeks 8-16 of diabetes using a modified Hargeaves test, as described

[2] = test system: diabetic mice (STZ model); test: Sub-epidermal neural plexus density in papillary dermis of STZ diabetic mice; type: in vivo, mouse; conditions: cream from hyperglycemia for 16 weeks
Description: To examine SNP, normo-glycemic or diabetic mice (STZ model) were treated with either vehicle cream of cream containing XIB4035 from the moment they became hyperglycemic, for 16 weeks. At the end of this treatment period, the density of sub-epidermal fibers in papillary dermis was measured in papillary dermis. It was thereby identified that sub-epidermal neural plexus (SNP) density was reduced in diabetic mice not administered XIB, but was preserved in diabetic mice that had received XIB4035 treatment (FIG. 10).
as §1

[3] = GFAP-DN-erbB4 mice, XIB4035 cream 4 weeks

T1 sequence (P07949 29-1114): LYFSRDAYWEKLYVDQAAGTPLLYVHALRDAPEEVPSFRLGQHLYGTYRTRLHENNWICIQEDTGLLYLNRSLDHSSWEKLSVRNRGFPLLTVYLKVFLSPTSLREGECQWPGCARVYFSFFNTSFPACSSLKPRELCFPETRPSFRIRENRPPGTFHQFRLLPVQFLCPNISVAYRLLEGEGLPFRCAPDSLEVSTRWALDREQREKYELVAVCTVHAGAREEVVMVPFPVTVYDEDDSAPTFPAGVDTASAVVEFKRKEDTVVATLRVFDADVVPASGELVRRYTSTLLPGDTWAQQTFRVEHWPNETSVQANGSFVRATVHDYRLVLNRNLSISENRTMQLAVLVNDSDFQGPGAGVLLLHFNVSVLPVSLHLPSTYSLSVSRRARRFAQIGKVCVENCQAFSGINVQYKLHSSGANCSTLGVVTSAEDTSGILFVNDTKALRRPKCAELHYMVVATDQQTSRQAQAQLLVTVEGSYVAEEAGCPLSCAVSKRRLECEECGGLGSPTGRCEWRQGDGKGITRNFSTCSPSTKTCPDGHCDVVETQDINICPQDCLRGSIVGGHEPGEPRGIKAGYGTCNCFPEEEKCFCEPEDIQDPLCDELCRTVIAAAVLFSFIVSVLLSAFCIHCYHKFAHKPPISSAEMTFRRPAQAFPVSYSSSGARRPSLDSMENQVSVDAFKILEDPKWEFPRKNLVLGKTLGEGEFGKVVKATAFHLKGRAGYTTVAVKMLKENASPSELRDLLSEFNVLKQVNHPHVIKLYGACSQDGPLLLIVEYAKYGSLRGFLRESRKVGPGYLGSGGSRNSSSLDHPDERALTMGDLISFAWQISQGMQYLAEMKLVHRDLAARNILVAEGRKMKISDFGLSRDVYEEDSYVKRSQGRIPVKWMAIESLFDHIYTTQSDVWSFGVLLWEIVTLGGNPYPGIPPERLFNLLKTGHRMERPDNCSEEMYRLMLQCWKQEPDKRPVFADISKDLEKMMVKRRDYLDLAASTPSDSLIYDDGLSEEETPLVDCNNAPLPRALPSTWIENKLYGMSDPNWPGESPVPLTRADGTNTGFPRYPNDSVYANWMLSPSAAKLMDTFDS
T1 sequence (P56159 25-429 limits assumed): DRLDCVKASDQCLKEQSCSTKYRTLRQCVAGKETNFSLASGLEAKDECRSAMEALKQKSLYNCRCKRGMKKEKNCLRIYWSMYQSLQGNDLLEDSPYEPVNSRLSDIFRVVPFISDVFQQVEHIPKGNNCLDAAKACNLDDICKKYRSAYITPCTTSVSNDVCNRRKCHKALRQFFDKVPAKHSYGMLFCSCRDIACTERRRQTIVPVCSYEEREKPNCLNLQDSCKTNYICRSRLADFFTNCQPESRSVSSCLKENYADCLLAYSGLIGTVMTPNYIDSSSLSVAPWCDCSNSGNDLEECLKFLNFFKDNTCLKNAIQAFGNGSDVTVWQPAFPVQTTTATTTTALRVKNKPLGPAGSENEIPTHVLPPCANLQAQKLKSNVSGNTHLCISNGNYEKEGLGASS

For `CCN(CC)CCCC(C)Nc1cc(/C=C/c2ccccc2Cl)nc2cc(Cl)ccc12` (stereo not shown) [XIB4035, N4-{7-chloro-2-[(E)-2-(2-chloro-phenyl)-vinyl]-quinolin-4-yl}-N1,N1-diethyl-pentane-1,4-diamine], the c-fiber area (GFAP-DN-erbB4 mice; [3]) was 1.64 ± 0.07 µm², the c-fibers/Remak bundle (GFAP-DN-erbB4 mice; [3]) was 8.40 ± 0.83 and the “degeneration of Remak bundles and C-fiber axons” value (GFAP-DN-erbB4 mice; cream 1.5 mM twice daily P21-P49, sciatic nerve EM) was “prevented the degeneration of Remak bundles and C-fiber axons”. The “duration of ligand-induced RET phosphorylation after washout” value (RET; 20 μM XIB4035 with 2 nM GDNF or 1 nM ARTN, 10 minutes treatment) was “at least 120 minutes”, the “induction of RET phosphorylation” value (RET; XIB4035 alone, various concentrations, two or 10 minutes) was “failed to induce RET phosphorylation” and the “nerve conduction velocity (NCV) in sciatic nerves” value [1] was “not statistically different from that observed in control animals”. For the same compound, the “sub-epidermal neural plexus (SNP) density” value [2] was “preserved”.
